Data reported in patent US20250049036A1 (priority 2021, published 2025).

Columns and labels:
Fusarium culmorum = Fusarium culmorum test on wheat, preventive, greenhouse; assay type: in vivo; conditions: preventive spray on wheat, inoculated one day after treatment, read-out: control (efficacy, disease severity) compared to the untreated check
Description: The respective compound was dissolved in 2% dimethyl sulfoxide/acetone and then mixed with water containing an emulsifier to a calibrated spray volume of 30 mL. Each spray solution was poured into a spray bottle for further application.
To test the preventive activity of a compound, healthy young wheat plants, raised in the greenhouse, were sprayed with the active compound preparation at the stated application rate inside the spray cabinets using hollow cone nozzles. One day after the treatment, the plants were inoculated with a spore suspension containing 2×10^6 Fusarium culmorum inoculum. The inoculated plants were then kept in a greenhouse chamber at 24° C. temperature and 80-90% relative humidity for disease expression.
(§1) A visual assessment of the compound's performance was carried out by rating the disease severity (0 100% scale) on treated plants 3, 7, 10 and 15 days after application. Efficacy (% control) of the compound was calculated by comparing the disease rating in the treatment with the one of the untreated control. The treated plants were also assessed for plant damage by recording symptoms like necrosis, chlorosis and stunting.

Phakopsora pachyrhizi = Phakopsora pachyrhizi test on soybean, preventive, greenhouse; assay type: in vivo; conditions: preventive spray on soybean, inoculated one day after treatment, read-out: control (efficacy, disease severity) compared to the untreated check
Summary of the method: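 Preventive protocol: plants inoculated with a 2×10^5 P. pachyrhizi conidial suspension one day after spray application at the stated rate, then incubated at 22-24 °C and 80-90% RH. Compound was applied from 2% DMSO/acetone diluted in emulsified water.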

Venturia Inequalis = assay: Venturia inequalis (VENTIN) spore growth inhibition in liquid medium, 96-well microtiter plate, OD 600; assay type: cell-based; conditions: spore suspension in PDB liquid medium, 18° C., 15-18 days, OD at 600, read-out: control compared to the untreated check
Summary of the method: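 Venturia inequalis spores (10^5 spores/ml suspension) were grown in potato dextrose broth with test compounds dissolved in DMSO, mixing equal volumes of compound solution and spore suspension. Plates were incubated at 18 °C for 15–18 days. Growth was read as OD600 and converted to percent inhibition.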

Corynespora cassiicola [1] = assay: Corynespora cassiicola test on tomato, preventive, greenhouse; assay type: in vivo; conditions: 500 ppm; preventive spray on tomato, inoculated one day after treatment
Description: (§2) The respective compound was dissolved in 2% dimethyl sulfoxide/acetone and then mixed with water containing an emulsifier to the calibrated spray volume of 30 mL. Each spray solution was poured into a spray bottle for further application.
To test the preventive activity of a compound, healthy young tomato plants, raised in the greenhouse, were sprayed with the active compound preparation at the stated application rate inside the spray cabinets using hollow cone nozzles. One day after treatment, the plants were inoculated with a spore suspension containing 2.6×10^6 Corynespora cassiicola inoculum. The inoculated plants were then kept in a greenhouse chamber at 22-24° C. temperature and 90-95% relative humidity for disease expression.
as §1

Pyricularia oryzae = assay: microbe, parasite or virus in culture; assay type: cell-based; conditions: 168 h, read-out: control compared to the untreated check
Phytophthora infestans [2] = assay: whole plant or invertebrate; assay type: in vivo, Phytophthora infestans on tomato; conditions: in Solanum lycopersicum, read-out: control (efficacy, disease severity) compared to the untreated check
Colletotrichum capsici = Colletotrichum capsici (anthracnose) mycelial radial growth on potato dextrose agar; assay type: cell-based; conditions: Colletotrichum truncatum, 168 h, 25° C., seven days, read-out: control compared to the untreated check
Summary of the method: (§3)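 Compounds in 0.3% DMSO were mixed into potato dextrose agar, and each plate was seeded with a 5 mm mycelial disc from an actively growing culture. Plates were incubated at 25° C and 60% relative humidity for seven days. Radial growth was compared with untreated control.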

Corynespora cassiicola [3] = assay: Corynespora cassiicola (leaf spot of tomato) mycelial radial growth on potato dextrose agar; assay type: cell-based; conditions: 168 h, 25° C., seven days, read-out: control compared to the untreated check
Description: The compounds were dissolved in 0.3% dimethyl sulfoxide and then added to potato dextrose agar medium just prior to dispensing it into petri dishes. 5 mL medium, with the compound in the desired concentration, was dispensed into 60 mm sterile petri-plates. After solidification, each plate was seeded with a 5 mm size mycelial disc taken from the periphery of an actively growing virulent culture plate. The plates were incubated in growth chambers at 25° C. temperature and 70% relative humidity for seven days and the radial growth was measured and compared to the one of the untreated control.

Alternaria solani [4] = assay: Alternaria solani test in tomato, preventive, greenhouse; assay type: in vivo; conditions: preventive spray on tomato, inoculated one day after treatment, read-out: control (efficacy, disease severity) compared to the untreated check
Description: as §2
To test the preventive activity of a compound, healthy young tomato plants, raised in the greenhouse, were sprayed with the active compound preparation at the stated application rate inside the spray cabinets using hollow cone nozzles. One day after treatment, the plants were inoculated with a spore suspension containing 0.24×10^6 Alternaria solani inoculum. The inoculated plants were then kept in a greenhouse chamber at 22-24° C. temperature and 90-95% relative humidity for disease expression.
as §1

Botrytis cinerea [5] = assay: Botrytis cinerea (gray mold) mycelial radial growth on potato dextrose agar; assay type: cell-based; conditions: 168 h, 22° C., seven days, read-out: control compared to the untreated check
Summary of the method: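 Compounds in 0.3% DMSO were mixed into potato dextrose agar, and plates were seeded with 5 mm mycelial discs from actively growing virulent culture. After seven days at 22 °C and 90% relative humidity, radial growth was measured relative to untreated control.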

Phytophthora infestans [6] = assay: microbe, parasite or virus in culture; assay type: cell-based; conditions: 168 h, read-out: control compared to the untreated check
Botrytis cinerea [7] = assay: Botrytis cinerea liq. (BOTRCI) spore growth inhibition in liquid medium, 96-well microtiter plate, OD 405 nm; assay type: cell-based; conditions: spore suspension in YBA liquid medium, 22° C., 5-6 days, OD at 405 nm, read-out: control compared to the untreated check
Summary of the method: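 Spore suspension of B. cinerea (10^4 spores/ml) in YBA liquid medium mixed 1:1 with compound diluted from DMSO. Incubated at 22° C. for 5-6 days. Growth read as OD 405 nm; percent inhibition derived from treatment, untreated-control and blank readings.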

Parastagonospora nodorum = Parastagonospora nodorum (PARANO) spore growth inhibition in liquid medium, 96-well microtiter plate, OD 600; assay type: cell-based; conditions: spore suspension in PDB liquid medium, 18° C., 5-6 days, OD at 600, read-out: control compared to the untreated check
Summary of the method: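 Read-out is percent growth inhibition from OD at 600 after 5-6 days at 18° C. Compounds, dissolved in DMSO, were diluted in potato dextrose broth and combined in equal volume with a 10^5 spores/ml suspension of PARANO.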

Alternaria solani [8] = assay: Alternaria solani (early blight of tomato/potato) mycelial radial growth on potato dextrose agar; assay type: cell-based; conditions: 168 h, 25° C., seven days, read-out: control compared to the untreated check
Summary of the method: as §3

Botrytis cinerea [9] = assay: Botrytis cinerea test on tomato, preventive, greenhouse; assay type: in vivo; conditions: preventive spray on bean/chili plants (heading: tomato), inoculated one day after treatment, read-out: control (efficacy, disease severity) compared to the untreated check

CC(c1ccccc1F)C(C)(C)NC(=O)c1cnc2c(c1)c(Cl)cn2C (stereo not shown) [Compound 64, 3-chloro-N-(3-(2-fluorophenyl)-2-methylbutan-2-yl)-1-methyl-1H-pyrrolo[2,3-b]pyridine-5-carboxamide]
≥ 70%: pest or weed control at 500 ppm (Fusarium culmorum) | pest or weed control at 500 ppm (Phakopsora pachyrhizi) | inhibition of growth at 300 ppm (Venturia Inequalis) | control (efficacy, disease severity) compared to the untreated check (Corynespora cassiicola [1]) | inhibition of growth at 300 ppm (Pyricularia oryzae) | pest or weed control at 500 ppm (Phytophthora infestans [2])

C=C(C)CC(C)(Cc1ccccc1F)NC(=O)c1cnc2c(ccn2C)c1 (stereo not shown) [Compound 127, N-(1-(2-fluorophenyl)-2,4-dimethylpent-4-en-2-yl)-1-methyl-1H-pyrrolo[2,3-b]pyridine-5-carboxamide]
≥ 70%: pest or weed control at 500 ppm (Phakopsora pachyrhizi) | inhibition of growth at 300 ppm (Venturia Inequalis) | inhibition of growth at 300 ppm (Colletotrichum capsici) | inhibition of growth at 300 ppm (Corynespora cassiicola [3]) | pest or weed control at 500 ppm (Alternaria solani [4])

CC(C)(NC(=O)c1cnc2ccsc2c1)C(F)(F)F [Compound 109, N-(1,1,1-trifluoro-2-methylpropan-2-yl)thieno[3,2-b] pyridine-6-carboxamide]
≥ 70%: inhibition of growth at 300 ppm (Botrytis cinerea [5]) | inhibition of growth at 300 ppm (Phytophthora infestans [6]) | inhibition of growth at 300 ppm (Botrytis cinerea [7]) | inhibition of growth at 300 ppm (Parastagonospora nodorum) | inhibition of growth at 300 ppm (Corynespora cassiicola [3]) | inhibition of growth at 300 ppm (Pyricularia oryzae) | inhibition of growth at 300 ppm (Alternaria solani [8])

C=C(C)CC(C)(COc1ccc(F)cc1)NC(=O)c1cnc2c(ccn2C)c1 (stereo not shown) [Compound 121, N-(1-(4-fluorophenoxy)-2,4-dimethylpent-4-en-2-yl)-1-methyl-1H-pyrrolo[2,3-b]pyridine-5-carboxamide]
≥ 70%: pest or weed control at 500 ppm (Fusarium culmorum) | inhibition of growth at 300 ppm (Colletotrichum capsici) | inhibition of growth at 300 ppm (Corynespora cassiicola [3])

CC(C)CC(C)(Cc1ccccc1)NC(=O)c1cnc2c(ccn2C)c1 (stereo not shown) [Compound 2, N-(2,4-dimethyl-1-phenylpentan-2-yl)-1-methyl-1H-pyrrolo[2,3-b]pyridine-5-carboxamide]
≥ 70%: pest or weed control at 500 ppm (Phakopsora pachyrhizi) | pest or weed control at 500 ppm (Botrytis cinerea [9]) | inhibition of growth at 300 ppm (Colletotrichum capsici) | inhibition of growth at 300 ppm (Corynespora cassiicola [3]) | inhibition of growth at 300 ppm (Pyricularia oryzae) | pest or weed control at 500 ppm (Alternaria solani [4]) | inhibition of growth at 300 ppm (Alternaria solani [8])
